Experiments:
human NLuc‐A2AR = target: T1, human NLuc‐A2AR (Homo sapiens, UniProt P29274); assay: NanoBRET saturation binding in HEK293G cells transiently transfected with NLuc‐A2AR; settings: non‐specific defined with 1 μM SCH58261; PSB603‐BY630 at concentrations up to 500 nM
T1 construct: expressed in transfected cells; host or cells: HEK293G, transient transfection with pcDNA3.1 NLuc-A2AR (FuGENE HD)
Protocol: The human A2A receptor cDNA was obtained from Missouri S&T cDNA Resource Centre (www.cdna.org) in a pcDNA3.1 expression vector. An N‐terminal nanoluciferase (NLuc)‐labeled human A2AR receptor constructs (NLuc‐A2AR) was then generated in frame with the full length NLuc incorporating a rat 5‐HT3A membrane localisation signal sequence in pcDNA3.1 as described previously.[37] For transient transfections, HEK293G cells were seeded at 20000 cells/well into white walled, clear bottomed 96‐wells plates (Greiner Bio‐One, Stonehouse, UK), coated with 10 μg/mL poly‐D‐lysine, in 100 μL medium/well and incubated at 37°C and 5% CO2 for 18–24 h. […]
Saturation and competition binding assays were performed as previously described.[36] […] The resulting bioluminescence resonance energy transfer (BRET) was measured using a PHERAstar FS plate reader (BMG Labtech) at 37°C. For each well, filtered light emissions at 460 nm (80 nm bandpass) and >610 nm (longpass) for the BODIPY630/650 ligand were simultaneously measured. BRET ratios were calculated by dividing the 610 nm emission by the 460 nm emission. […] For kinetic experiments, cells were preincubated for 10 min with 1:400 dilution of furimazine prior to addition of 200 nM PSB603‐BY630 and BRET ratios determined every 0.5 min. […]

endogenous A2BR = target: T2, endogenous A2BR (Homo sapiens, UniProt P29275); assay: cAMP GloSensor luminescence assay in HEK293G cells endogenously expressing A2BR; assay type: cell-based; settings: 20 nM and 200 nM PSB603‐BY630, endogenous A2BR
T2 construct: HEK293G cells that express the cAMP biosensor Glosensor also endogenously express both A2BR and A2AR; host or cells: HEK293G
T2 sequence (P29275 1-332): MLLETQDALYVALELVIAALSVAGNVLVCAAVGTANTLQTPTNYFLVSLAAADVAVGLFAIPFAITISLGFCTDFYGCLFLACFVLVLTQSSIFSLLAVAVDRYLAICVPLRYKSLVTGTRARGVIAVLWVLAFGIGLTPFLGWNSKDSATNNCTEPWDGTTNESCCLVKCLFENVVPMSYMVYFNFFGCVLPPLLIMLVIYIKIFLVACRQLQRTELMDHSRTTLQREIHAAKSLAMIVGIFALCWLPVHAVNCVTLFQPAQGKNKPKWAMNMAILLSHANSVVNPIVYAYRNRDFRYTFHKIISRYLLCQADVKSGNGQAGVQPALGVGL
Protocol: (§1) The cAMP GloSensor™ luminescence assay was performed according to the manufacturer's instructions (Promega Corporation, Madison, WI, USA). Briefly, after 24 h incubation at 37°C and 5% CO2 after cell plating (40 000 cells/well in 100 μL), medium was aspirated from each well of the 96‐well plate. Cells were incubated in 50 μL HEPES buffered saline solution (HBSS; 2 mM sodium pyruvate, 145 mM NaCl, 10 mM D‐glucose, 5 mM KCl, 1 mM MgSO4.7H2O, 10 mM HEPES, 1.3 mM CaCl2, 1.5 mM NaHCO3 in double‐distilled water, pH 7.45) containing 3% GloSensor™ cAMP reagent at 37°C for 1.5 h. For agonist studies, an initial baseline luminescence read was made at time zero, the plate was then removed from the plate‐reader and a further 50 μL HBSS containing agonist (2× final concentration) or HBSS (vehicle control) added. Luminescence was measured on an open channel (gain of 3600) immediately after these additions, and then continuously over 60 min, reading each well once every minute, by a PHERAstar FSX microplate reader (BMG Labtech, Offenburg, Germany) at 37°C. Increases in luminescence are indicative of intracellular cAMP accumulation, thus the temporal changes in relative cytosolic cAMP concentration were measured upon agonist or vehicle addition. Antagonist action was determined following 30 min pre‐incubation of HBSS in the presence of 20 and 200 nM PSB603‐BY630 and read as above. All conditions were performed in triplicates within each plate.

NLuc‐A2BR = target: T3, NLuc‐A2BR (Homo sapiens, UniProt P29275); assay: cAMP GloSensor luminescence assay in HEK293G cells overexpressing NLuc‐A2BR; assay type: cell-based; settings: 20 nM and 200 nM PSB603‐BY630, overexpressed NLuc‐A2BR
T3 construct: expressed in transfected cells
T3 sequence (P29275 1-332): T2 sequence (P29275 1-332)
Protocol: as §1

T1 sequence (P29274 whole entry): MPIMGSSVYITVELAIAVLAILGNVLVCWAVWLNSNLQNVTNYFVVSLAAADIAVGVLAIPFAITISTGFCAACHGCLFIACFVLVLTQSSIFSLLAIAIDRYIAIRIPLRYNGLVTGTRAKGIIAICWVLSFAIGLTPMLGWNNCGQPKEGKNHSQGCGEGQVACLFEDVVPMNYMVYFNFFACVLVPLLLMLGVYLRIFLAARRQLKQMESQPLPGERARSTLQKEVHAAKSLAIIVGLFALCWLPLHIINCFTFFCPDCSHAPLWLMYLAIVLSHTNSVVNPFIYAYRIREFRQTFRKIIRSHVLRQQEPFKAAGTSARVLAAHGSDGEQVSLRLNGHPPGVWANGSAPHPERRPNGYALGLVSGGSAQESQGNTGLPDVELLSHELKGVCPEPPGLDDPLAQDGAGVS

CCCn1c(=O)[nH]c2[nH]c(-c3ccc(S(=O)(=O)N4CCN(c5ccc(OCCNC(=O)CCCCCNC(=O)COc6ccc(/C=C/C7=[N+]8C(=Cc9ccc(-c%10cccs%10)n9[B-]8(F)F)C=C7)cc6)cc5)CC4)cc3)nc2c1=O [PSB603‐BY630]
specific binding to NLuc‐A2AR (human NLuc‐A2AR): negligible | effect on cAMP concentration‐response curve to BAY 60–6583 (endogenous A2BR): concentration‐dependent reduction in the maximal response to BAY 60–6583 without altering the EC50 | effect on cAMP concentration‐response curve to BAY 60–6583 (NLuc‐A2BR): small increase in the EC50 for BAY 60–6583

— PMC11191602, “A novel and selective fluorescent ligand for the study of adenosine A2B receptors” (Pharmacology Research & Perspectives, 2024)
